Each structure is given as a SMILES string.

One assay addresses T1, 1,25-dihydroxyvitamin D(3) 24-hydroxylase, mitochondrial (Homo sapiens, UniProt Q07973).
T1 sequence (Q07973 whole entry): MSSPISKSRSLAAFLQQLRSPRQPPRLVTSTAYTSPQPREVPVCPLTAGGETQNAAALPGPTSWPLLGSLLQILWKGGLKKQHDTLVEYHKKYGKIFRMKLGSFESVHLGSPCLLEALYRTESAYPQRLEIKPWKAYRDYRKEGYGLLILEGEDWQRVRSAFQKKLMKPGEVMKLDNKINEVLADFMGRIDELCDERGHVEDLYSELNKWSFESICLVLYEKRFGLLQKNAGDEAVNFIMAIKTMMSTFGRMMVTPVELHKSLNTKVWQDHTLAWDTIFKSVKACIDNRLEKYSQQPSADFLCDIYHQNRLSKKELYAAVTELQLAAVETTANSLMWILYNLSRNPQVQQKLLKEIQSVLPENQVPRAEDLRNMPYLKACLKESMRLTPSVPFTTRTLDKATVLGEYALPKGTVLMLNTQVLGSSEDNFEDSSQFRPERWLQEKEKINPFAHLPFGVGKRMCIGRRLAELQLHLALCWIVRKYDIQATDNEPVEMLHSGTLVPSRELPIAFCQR
Kind of assay: Inhibition of CYP24A1. Type of assay: ADME.
`O=C(NC[C@@H](c1ccccc1)n1ccnc1)c1ccc(-c2ccc(Cl)cc2)cc1`: the IC50 – broadly, the concentration needed to halve the response being measured – worked out at 15.1 nM.

The target of a further assay is T1, 1,25-dihydroxyvitamin D(3) 24-hydroxylase, mitochondrial. Kind of assay: Inhibition of human recombinant CYP24A1 expressed in chinese hamster V79 cells using [3H-1-beta]calcitriol after 60 mins by scintillation counting. Type of assay: ADME, cell-based.
On to `O=C(NCC(c1ccccc1)n1ccnc1)c1ccc(Cc2ccccc2)cc1` (centres undefined), for which the IC50 stood at 72 µM.

As to `O=C(NCC(c1ccccc1)n1ccnc1)c1ccc(/C=C/c2ccccc2)cc1` (centres undefined), the IC50 is 0.3 µM.

In the case of `O=C(NCC(c1ccccc1)n1ccnc1)c1cc2ccccc2o1` (centres undefined), the concentration for half-maximal inhibition (IC50) was 4 µM.

Consider `O=C(NCC(c1ccccc1)n1ccnc1)c1cc2cc([N+](=O)[O-])ccc2o1` (centres undefined), for which the IC50 worked out at 6.4 µM.

For the molecule `O=C(NCC(c1ccccc1)n1ccnc1)c1ccc(Br)cc1` (centres undefined), the IC50 was found to be 23 µM.

As for `COc1ccc2cc(C(=O)NCC(c3ccccc3)n3ccnc3)oc2c1` (centres undefined), the IC50 was 36.9 µM.

`O=C(NCC(c1ccc(F)cc1)n1ccnc1)c1cc2ccccc2o1` (centres undefined): the IC50 stood at 2.8 µM.

Take `O=C(NCC(c1ccc(Cl)cc1)n1ccnc1)c1cc2ccccc2o1` (centres undefined): the IC50 worked out at 10.6 µM.
